Among the data in paper PMC5065612, “A small molecule inhibitor of mutant IDH2 rescues cardiomyopathy in a D-2-hydroxyglutaric aciduria type II mouse model” (Journal of Inherited Metabolic Disease, 2016) are IC50 values, retold here.

In test [1] the target is T1, IDH2R140Q (isocitrate dehydrogenase 2) (Homo sapiens, UniProt P48735, R140Q).
T1 construct: gene IDH2; IDH2R140Q homodimer, recombinant purified enzyme
T1 sequence (P48735 40-452 R140Q): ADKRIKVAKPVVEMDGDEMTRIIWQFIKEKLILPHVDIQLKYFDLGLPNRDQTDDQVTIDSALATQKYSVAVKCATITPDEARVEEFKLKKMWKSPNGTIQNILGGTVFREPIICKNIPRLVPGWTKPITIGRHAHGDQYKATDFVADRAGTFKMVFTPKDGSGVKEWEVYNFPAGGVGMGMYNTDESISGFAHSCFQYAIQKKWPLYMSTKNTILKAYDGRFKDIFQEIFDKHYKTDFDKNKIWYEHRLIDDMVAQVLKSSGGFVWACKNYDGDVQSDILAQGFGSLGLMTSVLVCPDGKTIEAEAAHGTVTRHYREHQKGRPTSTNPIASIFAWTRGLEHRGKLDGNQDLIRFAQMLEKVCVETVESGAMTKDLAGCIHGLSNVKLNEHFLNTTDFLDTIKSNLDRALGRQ
As to the kind of experiment: NADPH depletion end-point assay (diaphorase/resazurin), […] h preincubation, recombinant enzyme. The format is biochemical. (Alamar Blue is a resazurin reagent that responds to reducing activity.)

The target of test [2] is T2, Idh2R140Q (mouse isocitrate dehydrogenase 2) (Mus musculus, UniProt P54071, R140Q).
T2 construct: gene Idh2; Idh2R140Q knock-in mouse embryonic stem cells
T2 sequence (P54071 40-452 R140Q): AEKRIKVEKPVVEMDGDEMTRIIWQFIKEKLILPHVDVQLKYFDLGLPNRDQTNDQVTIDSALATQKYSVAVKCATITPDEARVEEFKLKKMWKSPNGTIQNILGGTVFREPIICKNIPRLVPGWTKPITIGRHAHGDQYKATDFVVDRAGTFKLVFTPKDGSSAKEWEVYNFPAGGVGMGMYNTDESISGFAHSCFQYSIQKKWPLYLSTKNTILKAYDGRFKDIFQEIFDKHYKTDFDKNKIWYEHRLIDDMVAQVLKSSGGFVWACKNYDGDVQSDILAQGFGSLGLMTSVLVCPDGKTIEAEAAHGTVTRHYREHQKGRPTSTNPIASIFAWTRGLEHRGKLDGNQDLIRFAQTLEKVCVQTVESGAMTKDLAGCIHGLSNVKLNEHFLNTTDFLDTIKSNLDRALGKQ
The test can be described thus: 2HG production in culture medium of knock-in ES cells, LC-MS. The format is cell-based.

In the case of `CC(C)Nc1nc(Nc2ccnc(C(F)(F)F)c2)nc(-c2cccc(C(F)(F)F)n2)n1` [AGI-026], the IC50 (usually the concentration needed to halve the response being measured) turned out to be 4 ± 0.2 nM in test [1] and 5.4 ± 2.8 nM in test [2].
